Measurements reported in patent publication US11498920B2, “4-(1H-imidazol-5-yl)-1H-pyrrolo[2, 3-b] pyridines for use in the treatment of leukaemias, lymphomas and solid tumors” (MASARYKOVA UNIVERZITA, priority 2018, dated 2022).

Columns and labels:
primary CLL cells = assay: Cytotoxicity, TMRE flow cytometry viability, primary CLL cells (Example II.1); format: cell-based; conditions: Homo sapiens, CLL cell, 6 hours, TMRE positive cells normalized to control, ratio to PF670462, <1 = higher cytotoxicity than PF670462, read-out: Viability of cells, Compound of formula I (100 μM), relative to PF670462 (100 μM), CLL primary cells
[1] = Pharmacokinetic study, oral dosing, plasma concentration by LC-MS/MS (Example II.5); format: in vivo; conditions: mouse, male Balb/c mice, oral 20 mg/kg as dihydrochloride in saline, free base quantified, below LLOQ designated zero; for concentration at 15 min: read-out: conc. at 15 min; for concentration at 30 min: read-out: conc. at 30 min; for concentration at 60 min: read-out: conc. at 60 min; for concentration at 120 min: read-out: conc. at 120 min; for concentration at 240 min: read-out: conc. at 240 min; for concentration at 600 min: read-out: conc. at 600 min
Procedure: Male Balb/c mice (10-12 weeks old, body weight 24.1 to 30.8 g and average body weight across all groups 26.8 g, SD=1.7 g) were used in this study. The animals were randomly assigned to the treatment groups before the pharmacokinetic study; all animals were fasted for 4 h before dosing. The time points indicated in Table 4 were set for this pharmacokinetic study. Each of the time point treatment group included 4 animals. There was also control group of 2 animals. The compounds were dosed orally as the corresponding dihydrochlorides dissolved in physiological saline (c=3-4 mg/mL) at the dose of 20 mg/kg.
Mice were injected IP with 2,2,2-tribromoethanol at the dose of 150 mg/kg prior to drawing the blood. Blood collection was performed from the orbital sinus in microtainers containing K2EDTA. Animals were sacrificed by cervical dislocation after the blood samples collection. All samples were immediately processed, flash-frozen and stored at −70° C. until subsequent analysis.
Plasma samples (50 μL) were mixed with 200 μL of internal standard solution. After mixing by pipetting and centrifuging for 4 min at 6,000 rpm, 0.5 μL of each supernatant was injected into LC-MS/MS system.
The analyzed compound (as a dihydrochloride salt) was dissolved in DMSO, and the resulting solution with concentration of 2 mg/mL was used for calibration standards preparation (stock solution). A series of calibration standards was prepared by consecutively dilution of stock compound solution with blank mouse plasma to a final concentration of 40 000, 20 000, 10 000, 5 000, 2 500, 1000, 500, 250, 100, 50, and 20 ng/mL. Standard plasma samples (50 μL) were mixed with 200 μL of internal standard. After mixing by pipetting and centrifuging for 4 min at 6,000 rpm, 0.5 μL of each supernatant was injected into LC-MS/MS system. Signal corresponding to the free base was analyzed and quantified (Table 4).
The regression analysis of the analyzed compound was performed by plotting the peak area ratio (y-axis) against the compound concentration in calibration standards (x-axis, ng/mL).
The concentrations of the analyzed compound in plasma samples below the lower limit of quantitation (LLOQ—5 ng/mL to 20 ng/mL) were designated as zero.

[2] = test system: Maver-1 cells (mantle cell lymphoma); assay: Cytotoxicity, TMRE flow cytometry viability, Maver-1 cells (Example II.1); format: cell-based; conditions: Homo sapiens, Maver1, 24 hours, TMRE positive cells normalized to control, ratio to PF670462, <1 = higher cytotoxicity than PF670462, read-out: Viability of cells, Compound of formula I (100 μM), relative to PF670462 (100 μM), Maver-1 cells (mantle cell lymphoma)

SMILES	concentration at 15 min [1] [nM]	concentration at 30 min [1] [nM]	concentration at 60 min [1] [nM]	concentration at 120 min [1] [nM]	concentration at 240 min [1] [nM]	concentration at 600 min [1] [nM]	viability at 100 µM (primary CLL cells) [%]	viability at 100 µM [2] [%]
Fc1ccc(-c2ncn(Cc3cccnc3)c2-c2ccnc3[nH]ccc23)cc1 [Preparative Example 82, 4-(4-(4-fluorophenyl)-1-(pyridin-3-ylmethyl)-1H-imidazol-5-yl)-1H-pyrrolo[2,3-b]pyridine]	1370	260	90	40	20	0	80	–
CN1CCC(Cn2cnc(-c3ccc(F)cc3)c2-c2ccnc3[nH]ccc23)CC1 [Preparative Example 102, 4-(4-(4-fluorophenyl)-1-((1-methylpiperidin-4-yl)methyl)-1H-imidazol-5-yl)-1H-pyrrolo[2,3-b]pyridine]	620	720	400	530	480	0	68	69
CN(C)[C@H]1C[C@@H](n2cnc(-c3ccc(F)cc3)c2-c2ccnc3[nH]ccc23)C1 [Preparative Example 123, (1R,3s)-3-(4-(4-fluorophenyl)-5-(1H-pyrrolo[2,3-b]pyridin-4-yl)-1H-imidazol-1-yl)-N,N-dimethylcyclobutan-1-amine]	1350	920	520	130	0	0	58	78
CN1CCC(F)(Cn2cnc(-c3ccc(F)cc3)c2-c2ccnc3[nH]ccc23)CC1 [Preparative Example 126, 4-(1-((4-fluoro-1-methylpiperidin-4-yl)methyl)-4-(4-fluorophenyl)-1H-imidazol-5-yl)-1H-pyrrolo[2,3-b]pyridine]	2380	1830	840	760	380	0	64	71
Fc1ccc(-c2ncn(Cc3nc[nH]n3)c2-c2ccnc3[nH]ccc23)cc1 [Preparative Example 154, 4-(1-((1H-1,2,4-triazol-3-yl)methyl)-4-(4-fluorophenyl)-1H-imidazol-5-yl)-1H-pyrrolo[2,3-b]pyridine]	13900	8760	7860	2450	520	0	–	–

More lines, main results first:

concentration at 15 min [1] [nM]	concentration at 30 min [1] [nM]	concentration at 60 min [1] [nM]	concentration at 120 min [1] [nM]	concentration at 240 min [1] [nM]	concentration at 600 min [1] [nM]	SMILES	viability at 100 µM (primary CLL cells) [%]	viability at 100 µM [2] [%]
9520	6630	4520	790	50	0	Cn1cnc(Cn2cnc(-c3ccc(F)cc3)c2-c2ccnc3[nH]ccc23)c1 [Preparative Example 92, 4-(4-(4-fluorophenyl)-1-((1-methyl-1H-imidazol-4-yl)methyl)-1H-imidazol-5-yl)-1H-pyrrolo[2,3-b]pyridine]	–	81
440	210	180	70	0	0	Cn1ccc(Cn2cnc(-c3ccc(F)cc3)c2-c2ccnc3[nH]ccc23)n1 [Preparative Example 94]	–	81
